Source: US20260217711A1, “TRIAZOLOPYRIDINYL ETHER LINKED COMPOUNDS AS KINASE INHIBITORS” (Bristol-Myers Squibb Company, priority 2023, published 2026)
pIC50: −log10 of the molar value. Like-named read-outs stand apart in the source and are kept apart here.

System: MLKL phosphorylation (pMLKL) in HT29-L23 cells
Assay: MLKL Phosphorylation High-Content Assay
Format: cell-based
Conditions: necroptosis induced with human TNFα, SMAC mimetic and Z-VAD, 6 h, read-out: LE pMLKL HC IC50
Description: Following 6 h incubation at 37° C. […] MLKL phosphorylation was detected using anti-MLKL (phospho […]) antibody (Abcam #ab187091) (1:1000 dilution in Blocking Buffer [PBS supplemented with 0.1% BSA]) with ON incubation at 4° C. […] Following another three cycles of washes in PBS, the microplates were sealed, and cellular images were acquired in the Cellomics ArrayScan VTI high-content imager equipped with an X1 camera. […] The image sets were analyzed using the Compartmental Analysis Bioapplication software (Cellomics). The level of MLKL phosphorylation was quantified as […].

Compound	pIC50	pIC50 (Homo sapiens)
Nc1nc2cc(-c3ccc(C(F)(F)F)c(OCCC(F)C(O)c4ccc(F)cc4)c3F)ccn2n1 (single isomer, unassigned) [Example 113, 4-(3-(2-amino-[1,2,4]triazolo[1,5-a]pyridin-7-yl)-2-fluoro-6-(trifluoromethyl)phenoxy)-2-fluoro-1-(4-fluorophenyl)butan-1-ol]	6.66	–
CC(O)(c1ccc(F)cc1)C(F)(F)CCOc1cc(-c2ccn3nc(N)nc3c2)ccc1F (single isomer, unassigned) [Example 58, 5-(5-(2-amino-[1,2,4]triazolo[1,5-a]pyridin-7-yl)-2-fluorophenoxy)-3,3-difluoro-2-(4-fluorophenyl)pentan-2-ol]	8.30	–
CC(O)(c1ccc(F)cc1)C(F)(F)CCOc1cccc(-c2ccn3nc(N)nc3c2)c1C(F)F (single isomer, unassigned) [Example 24, 5-(3-(2-amino-[1,2,4]triazolo[1,5-a]pyridin-7-yl)-2-(difluoromethyl)phenoxy)-3,3-difluoro-2-(4-fluorophenyl)pentan-2-ol]	5.22	–
Nc1nc2cc(-c3ccc(Cl)c(OCCC(F)C(O)c4ccc(F)cc4)c3F)ccn2n1 (single isomer, unassigned) [Example 82, 4-(3-(2-amino-[1,2,4]triazolo[1,5-a]pyridin-7-yl)-6-chloro-2-fluorophenoxy)-2-fluoro-1-(4-fluorophenyl)butan-1-ol]	–	7.59
Nc1nc2cc(-c3ccc(F)c(OCCC(F)C(O)c4ccc(F)cc4)c3F)ccn2n1 (single isomer, unassigned) [Example 103, 4-(3-(2-amino-[1,2,4]triazolo-[1,5-a]pyridin-7-yl)-2,6-difluorophenoxy)-2-fluoro-1-(4-fluorophenyl)butan-1-ol]	8.82	–
Nc1nc2cc(-c3cccc(OCCC(F)(F)C(N)c4ccc(F)cc4)c3F)ccn2n1 (single isomer, unassigned) [Example 61, 7-(3-(4-amino-3,3-difluoro-4-(4-fluorophenyl)butoxy)-2-fluorophenyl)-[1,2,4]triazolo[1,5-a]pyridin-2-amine]	9.22	–
Nc1nc2cc(-c3cccc(OCCC(F)C(O)c4ccc(F)cc4)c3F)ccn2n1 (single isomer, unassigned) [Example 87, 4-(3-(2-amino-[1,2,4]triazolo[1,5-a]pyridin-7-yl)-2-fluorophenoxy)-2-fluoro-1-(4-fluorophenyl)butan-1-ol]	9.40	–
CC(O)(c1ccc(F)cc1)C(F)CCOc1cc(-c2ccn3nc(N)nc3c2)cc(F)c1F (single isomer, unassigned) [Example 92, 5-(5-(2-amino-[1,2,4]triazolo[1,5-a]pyridin-7-yl)-2,3-difluorophenoxy)-3-fluoro-2-(4-fluorophenyl)pentan-2-ol]	5.86	–
CC(O)(c1ccc(F)cc1)C(F)(F)CCOc1c(Cl)ccc(-c2ccn3nc(N)nc3c2)c1F (single isomer, unassigned) [Example 51, 5-(3-(2-amino-[1,2,4]triazolo[1,5-a]pyridin-7-yl)-6-chloro-2-fluorophenoxy)-3,3-difluoro-2-(4-fluorophenyl)pentan-2-ol]	6.82	–
CC(O)(c1ccc(F)cc1)C(F)(F)CCOc1ccc(F)c(-c2ccn3nc(N)nc3c2)n1 (single isomer, unassigned) [Example 78, 5-((6-(2-amino-[1,2,4]triazolo[1,5-a]pyridin-7-yl)-5-fluoropyridin-2-yl)oxy)-3,3-difluoro-2-(4-fluorophenyl)pentan-2-ol]	7.89	–
Nc1nc2cc(-c3cccc(OCCC(F)(F)C(O)c4ccc(Cl)cc4)c3F)ccn2n1 (racemic) [Example 70, 4-(3-(2-amino-[1,2,4]triazolo[1,5-a]pyridin-7-yl)-2-fluorophenoxy)-1-(4-chlorophenyl)-2,2-difluorobutan-1-ol]	–	9.00
CC(O)(c1ccc(F)cc1)C(F)CCOc1cc(-c2ccn3nc(N)nc3c2)cc(F)c1F (single isomer, unassigned) [Example 93, 5-(5-(2-amino-[1,2,4]triazolo[1,5-a]pyridin-7-yl)-2,3-difluorophenoxy)-3-fluoro-2-(4-fluorophenyl)pentan-2-ol]	6.85	–
Nc1nc2cc(-c3cc(F)c(F)c(OCCC(F)C(O)c4ccc(F)cc4)c3)ccn2n1 (single isomer, unassigned) [Example 118, 4-(5-(2-amino-[1,2,4]triazolo[1,5-a]pyridin-7-yl)-2,3-difluorophenoxy)-2-fluoro-1-(4-fluorophenyl)butan-1-ol]	5.98	–
CC(O)(c1ccc(F)cc1)C(F)CCOc1cccc(-c2ccn3nc(N)nc3c2)c1F (single isomer, unassigned) [Example 88, 5-(3-(2-amino-[1,2,4]triazolo[1,5-a]pyridin-7-yl)-2-fluorophenoxy)-3-fluoro-2-(4-fluorophenyl)pentan-2-ol]	7.89	–
Nc1nc2cc(-c3ccc(F)c(OCCC(F)(F)C(O)c4ccc(F)cn4)c3F)ccn2n1 (single isomer, unassigned) [Example 33, 4-(3-(2-amino-[1,2,4]triazolo[1,5-a]pyridin-7-yl)-2,6-difluorophenoxy)-2,2-difluoro-1-(5-fluoropyridin-2-yl)butan-1-ol]	7.07	–
Nc1nc2cc(-c3ccc(Cl)c(OCCC(F)C(O)c4ccc(F)cc4)c3F)ccn2n1 (single isomer, unassigned) [Example 98, 4-(3-(2-amino-[1,2,4]triazolo[1,5-a]pyridin-7-yl)-6-chloro-2-fluorophenoxy)-2-fluoro-1-(4-fluorophenyl)butan-1-ol]	8.70	–
CC(N)(c1ccc(F)cc1)C(F)(F)CCOc1c(F)ccc(-c2ccn3nc(N)nc3c2)c1F (single isomer, unassigned) [Example 16, 7-(3-((4-amino-3,3-difluoro-4-(4-fluorophenyl)pentyl)oxy)-2,4-difluorophenyl)-[1,2,4]triazolo[1,5-a]pyridin-2-amine]	7.70	–
CC(O)(c1ccc(Cl)cc1)C(F)(F)CCOc1c(Cl)ccc(-c2ccn3nc(N)nc3c2)c1F (single isomer, unassigned) [Example 44, 5-(3-(2-amino-[1,2,4]triazolo[1,5-a]pyridin-7-yl)-6-chloro-2-fluorophenoxy)-2-(4-chlorophenyl)-3,3-difluoropentan-2-ol]	9.22	–
CC(O)(c1ccccc1)C(F)(F)CCOc1c(Cl)ccc(-c2ccn3nc(N)nc3c2)c1F (single isomer, unassigned) [Example 42, 5-(3-(2-amino-[1,2,4]triazolo[1,5-a]pyridin-7-yl)-6-chloro-2-fluorophenoxy)-3,3-difluoro-2-phenylpentan-2-ol]	7.77	–
CC(C)(CC(F)(F)C(C)(O)c1ccc(F)cc1)Oc1c(F)ccc(-c2ccn3nc(N)nc3c2)c1F (single isomer, unassigned) [Example 131, 5-(3-(2-amino-[1,2,4]triazolo[1,5-a]pyridin-7-yl)-2,6-difluorophenoxy)-3,3-difluoro-2-(4-fluorophenyl)-5-methylhexan-2-ol]	8.47	–
[2H]C([2H])(CC(F)(F)C(C)(O)c1ccc(F)cc1)Oc1cccc(-c2ccn3nc(N)nc3c2)c1F (single isomer, unassigned) [Example 12, 5-(3-(2-amino-[1,2,4]triazolo[1,5-a]pyridin-7-yl)-2-fluorophenoxy)-3,3-difluoro-2-(4-fluorophenyl)pentan-5,5-d2-2-ol]	9.00	–
